pIC50, pKd: −log10 of the molar value. Numbered stars: 1 amine (or outer) side, 2 acyl side, 3 side chain; on linkers, the order of the positions; unused ones are H or OH. Bridge positions count the residues as written; N and C are the ends. Square brackets hold non-standard residues; d marks the D form. Peptide text beside a SMILES is read from it. * marks the point of attachment. X19 = NC(=O)[C@H](CCCCNC(=O)CN1CCN(CC(=O)O)CCN(CC(=O)O)CCN(CC(=O)O)CC1)NC(=O)CCC(=O)NCCCOCCOCCNCCCN*; TBMB(SCH2CH2NH-DOTA) = O=C(O)CN1CCN(CC(=O)O)CCN(CC(=O)NCCSCc2cc(C[*:1])cc(C[*:2])c2)CCN(CC(=O)O)CC1; X7 = O=C(CN1CCN2CCN3CCN(CC1)CC(=O)[O][In]([O]C(=O)C2)[O]C(=O)C3)NCCSCc1cc(C[*:1])cc(C[*:2])c1; X1 = O=C(O)CN1CCN(CC(=O)O)CCN(CC(=O)N2CCN(Cc3cc(C[*:1])cc(C[*:2])c3)CC2)CCN(CC(=O)O)CC1; Phe(2-CF3) = N[C@@H](Cc1ccccc1C(F)(F)F)C(=O)O; X12 = NCCNCC(CNCCN)C(=O)NCCCOCCOCCOCCCN*; mXylylene = c1cc(C[*:1])cc(C[*:2])c1; Pentanesulfonyl = CCCCCS(=O)(=O)*; Suc = O=C(CCC(=O)[*:2])[*:1]; Nle = CCCC[C@H](N)C(=O)O; Hexanoyl = CCCCCC(=O)*; Sar = CNCC(=O)O
Experiments:
[1] = biological target: T1, FAP-expressing human WI-38 fibroblasts (Homo sapiens, UniProt Q12884); assay: Competitive FACS binding assay; settings: pIC50 Category (FACS), competition with 3 nM Cy5-labeled compound, 4° C., 1 hour
T1 construct: FAP-expressing human WI-38 fibroblasts (ECACC) were cultured in EMEM; host or cells: WI-38 human fibroblasts
T1 sequence (Q12884 1-760): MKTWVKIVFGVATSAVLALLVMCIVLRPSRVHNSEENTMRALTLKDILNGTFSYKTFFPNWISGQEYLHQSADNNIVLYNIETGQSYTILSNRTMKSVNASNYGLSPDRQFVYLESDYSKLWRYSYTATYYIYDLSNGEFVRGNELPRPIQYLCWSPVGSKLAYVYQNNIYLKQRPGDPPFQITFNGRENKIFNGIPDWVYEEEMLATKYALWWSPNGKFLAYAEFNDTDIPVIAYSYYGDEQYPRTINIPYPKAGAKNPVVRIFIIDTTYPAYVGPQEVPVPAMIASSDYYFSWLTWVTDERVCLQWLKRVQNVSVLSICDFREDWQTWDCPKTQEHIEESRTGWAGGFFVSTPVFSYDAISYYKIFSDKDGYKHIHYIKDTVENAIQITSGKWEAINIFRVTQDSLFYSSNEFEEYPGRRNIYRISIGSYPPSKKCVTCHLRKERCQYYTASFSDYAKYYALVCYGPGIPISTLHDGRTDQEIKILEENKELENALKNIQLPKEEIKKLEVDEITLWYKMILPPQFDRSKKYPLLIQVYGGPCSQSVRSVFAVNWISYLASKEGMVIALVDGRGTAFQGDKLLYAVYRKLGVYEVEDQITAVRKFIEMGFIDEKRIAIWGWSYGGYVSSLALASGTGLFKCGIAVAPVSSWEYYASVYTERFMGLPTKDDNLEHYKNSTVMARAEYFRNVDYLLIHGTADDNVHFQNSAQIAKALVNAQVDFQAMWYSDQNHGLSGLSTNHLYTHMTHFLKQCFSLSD
Procedure: Cells were analyzed in an Attune NxT flow cytometer. […]

[2] = biological target: T2, Human recombinant FAP (Homo sapiens, UniProt Q12884); assay: Surface plasmon resonance (Biacore) assay; type: binding
T2 sequence (Q12884 1-760): T1 sequence (Q12884 1-760)

[3] = biological target: T2, Human recombinant FAP; assay: FRET-based FAP protease activity assay; type: biochemical; parameters: purchased R&D systems 3715-SE; settings: pIC50 Category (Activity), FRET substrate, 37° C.

pIC50 [1] | pKd [2] | pIC50 [3] | SMILES | pIC50 ([1]; WI-38 fibroblasts) | pIC50 ([3]; recombinant human FAP)
> 8.00 | > 8.00 | 7.10 to 8.00 | CCCCCC(=O)N[C@H]1CSCc2cc(CSCCNC(=O)CN3CCN(CC(=O)O)CCN(CC(=O)O)CCN(CC(=O)O)CC3)cc(c2)CSC[C@@H](C(=O)O)NC(=O)[C@H](Cc2ccccc2)NC(=O)[C@H](CCC(=O)O)NC(=O)[C@H]([C@@H](C)O)NC(=O)[C@@H]2CCCN2C(=O)[C@@H]2CCCN2C1=O [3BP-4250, Hex-[Cys-(tMeBn(DOTA-AET))-Pro-Pro-Thr-Glu-Phe-Cys]-OH] (Hexanoyl-CPPTEFC-OH; linker 1-7 via TBMB(SCH2CH2NH-DOTA)) | – | –
> 8.00 | > 8.00 | > 8.00 | CCCCCC(=O)N[C@H]1CSCc2cc(CSCCNC(=O)CN3CCN(CC(=O)O)CCN(CC(=O)O)CCN(CC(=O)O)CC3)cc(c2)CSC[C@@H](C(=O)N(C)CC(=O)O)NC(=O)[C@H](Cc2ccccc2)NC(=O)[C@H](CCC(N)=O)NC(=O)[C@H]([C@@H](C)O)NC(=O)[C@@H]2CCCN2C(=O)[C@@H]2CCCN2C1 [3BP-3659, Hex-[Cys(tMeBn(DOTA-AET))-Pro-Pro-Thr-Gln-Phe-Cys]-Nmg-OH] | – | –
> 8.00 | > 8.00 | > 8.00 | CCCCCC(=O)N[C@H]1CSCc2cc(CSCCNC(=O)CN3CCN4CCN5CCN(CC3)CC(=O)[O][In]([O]C(=O)C4)[O]C(=O)C5)cc(c2)CSC[C@@H](C(=O)NCC(=O)O)NC(=O)[C@H](Cc2ccccc2)NC(=O)[C@H](CCC(N)=O)NC(=O)[C@H]([C@@H](C)O)NC(=O)[C@@H]2CCCN2C(=O)[C@@H]2CCCN2C1=O [3BP-3714, Hex-[Cys(tMeBn(InDOTA-AET))-Pro-Pro-Thr-Gln-Phe-Cys]-Gly-OH] (Hexanoyl-CPPTQFCG-OH; linker 1-7 via X7) | – | –
> 8.00 | > 8.00 | > 8.00 | CCCCCC(=O)N[C@H]1CSCc2cc(CSCCNC(=O)CN3CCN(CC(=O)O)CCN(CC(=O)O)CCN(CC(=O)O)CC3)cc(c2)CSC[C@@H](C(=O)O)NC(=O)[C@H](Cc2ccccc2C(F)(F)F)NC(=O)[C@H](CCC(N)=O)NC(=O)[C@H]([C@@H](C)O)NC(=O)[C@@H]2CCCN2C(=O)CN(C)C1=O [3BP-3680, Hex-[Cys(tMeBn(DOTA-AET))-Pro-Pro-Thr-Gln-Otf-Cys]-OH] (Hexanoyl-C[Sar]PTQ[Phe(2-CF3)]C-OH; linker 1-7 via TBMB(SCH2CH2NH-DOTA)) | – | –
– | > 8.00 | – | CCCCCC(=O)N[C@H]1CSCc2cccc(c2)CSC[C@@H](C(=O)N[C@@H](CC(=O)O)C(=O)NCCCNCCOCCOCCCNC(=O)CCC(=O)N[C@@H](CCCCNC(=O)CN2CCN(CC(=O)O)CCN(CC(=O)O)CCN(CC(=O)O)CC2)C(N)=O)NC(=O)[C@H](Cc2ccccc2)NC(=O)[C@H](CCC(=O)O)NC(=O)[C@H]([C@@H](C)O)NC(=O)[C@@H]2CCCN2C(=O)[C@@H]2CCCN2C1=O [3BP-3396, Hex-[Cys(3MeBn)-Pro-Pro-Thr-Glu-Phe-Cys]-Asp-Ttds-Lys(DOTA)-NH2] (Hexanoyl-CPPTEFCD-X19; linker 1-7 via mXylylene) | > 8.00 | > 8.00
7.10 to 8.00 | > 8.00 | > 8.00 | CCCC[C@H](NC(=O)CCC(=O)NCCCOCCOCCOCCCNC(=O)C(CNCCN)CNCCN)C(=O)N[C@H]1CSCc2cccc(c2)CSC[C@@H](C(=O)O)NC(=O)[C@H](Cc2ccccc2)NC(=O)[C@H](CCC(N)=O)NC(=O)[C@H]([C@@H](C)O)NC(=O)[C@@H]2CCCN2C(=O)[C@@H]2CCCN2C1=O [3BP-4219, N4Ac-Ttds-Nle-[Cys-(3MeBn)-Pro-Pro-Thr-Gln-Phe-Cys]-OH] | – | –
> 8.00 | > 8.00 | > 8.00 | CCCC[C@H](NC(=O)CCC(=O)NCCCOCCOCCOCCCNC(=O)C(CNCCN)CNCCN)C(=O)N[C@H]1CSCc2cccc(c2)CSC[C@@H](C(=O)O)NC(=O)[C@H](Cc2ccccc2)NC(=O)[C@H](CCC(=O)O)NC(=O)[C@H]([C@@H](C)O)NC(=O)[C@@H]2CCCN2C(=O)[C@@H]2CCCN2C1=O [3BP-4161, N4Ac-Ttds-Nle-[Cys-(3MeBn)-Pro-Pro-Thr-Glu-Phe-Cys]-OH] ({X12-Suc}-[Nle]CPPTEFC-OH; linker 2-8 via mXylylene) | – | –
> 8.00 | > 8.00 | > 8.00 | CCCCCC(=O)N[C@H]1CSCc2cc(CSCCNC(=O)CN3CCN(CC(=O)O)CCN(CC(=O)O)CCN(CC(=O)O)CC3)cc(c2)CSC[C@@H](C(=O)O)NC(=O)[C@H](Cc2ccccc2)NC(=O)[C@H](CCC(N)=O)NC(=O)[C@H]([C@@H](C)O)NC(=O)[C@@H]2C[C@@H](O)CN2C(=O)[C@@H]2CCCN2C1 [3BP-3679, Hex-[Cys(tMeBn(DOTA-AET))-Pro-Hyp-Thr-Gln-Phe-Cys]-OH] | – | –

SMILES | pIC50 [1] | pKd [2] | pIC50 [3] | pIC50 ([1]; WI-38 fibroblasts) | pIC50 ([3]; recombinant human FAP)
CCCCCC(=O)N[C@H]1CSCc2cc(CSCCNC(=O)COCCOCCNC(=O)CC[C@H](C(=O)O)N3CCN(CC(=O)O)CCN(CC(=O)O)CC3)cc(c2)CSC[C@@H](C(=O)O)NC(=O)[C@H](Cc2ccccc2)NC(=O)[C@H](CCC(N)=O)NC(=O)[C@H]([C@@H](C)O)NC(=O)[C@@H]2CCCN2C(=O)[C@@H]2CCCN2C1=O [3BP-4251, Hex-[Cys-(tMeBn(NODAGA-O2Oc-AET))-Pro-Pro-Thr-Gln-Phe-Cys]-OH] | > 8.00 | > 8.00 | > 8.00 | – | –
CCCCCS(=O)(=O)N[C@H]1CSCc2cc(CSCCNC(=O)CN3CCN(CC(=O)O)CCN(CC(=O)O)CCN(CC(=O)O)CC3)cc(c2)CSC[C@@H](C(=O)O)NC(=O)[C@H](Cc2ccccc2)NC(=O)[C@H](CCC(N)=O)NC(=O)[C@H]([C@@H](C)O)NC(=O)[C@@H]2CCCN2C(=O)[C@@H]2CCCN2C1=O [3BP-3690, Pentyl-SO2-[Cys(tMeBn(DOTA-AET))-Pro-Pro-Thr-Gln-Phe-Cys]-OH] | > 8.00 | > 8.00 | > 8.00 | – | –
CCCCCC(=O)N[C@H]1CSCc2cccc(c2)CSC[C@@H](C(=O)N[C@@H](CC(=O)O)C(=O)NCCCNCCOCCOCCCNC(=O)CCC(=O)N[C@@H](CCCCNC(=O)CN2CCN(CC(=O)O)CCN(CC(=O)O)CCN(CC(=O)O)CC2)C(N)=O)NC(=O)[C@H](Cc2ccccc2)NC(=O)[C@H](CCC(N)=O)NC(=O)[C@H]([C@@H](C)O)NC(=O)[C@@H]2CCCN2C(=O)[C@@H]2CCCN2C1=O [3BP-3395, Hex-[Cys(3MeBn)-Pro-Pro-Thr-Gln-Phe-Cys]-Asp-Ttds-Lys(DOTA)-NH2] (Hexanoyl-CPPTQFCD-X19; linker 1-7 via mXylylene) | – | > 8.00 | – | > 8.00 | > 8.00
CCCCCC(=O)N[C@H]1CSCc2cccc(c2)CSC[C@@H](C(=O)N[C@@H](CCCCNC(=O)CCC(=O)NCCCOCCOCCOCCCNC(=O)CN2CCN(CC(=O)O)CCN(CC(=O)O)CCN(CC(=O)O)CC2)CC(=O)O)NC(=O)[C@H](Cc2ccccc2)NC(=O)[C@H](CCC(N)=O)NC(=O)[C@H]([C@@H](C)O)NC(=O)[C@@H]2CCCN2C(=O)[C@@H]2CCCN2C1=O [3BP-3489, Hex-[Cys(3MeBn)-Pro-Pro-Thr-Gln-Phe-Cys]-Bhk(DOTA-Ttds)-OH] | – | > 8.00 | – | > 8.00 | > 8.00
CCCCCC(=O)N[C@H]1CSCc2cc(cc(CN3CCN(C(=O)C(CNCCN)CNCCN)CC3)c2)CSC[C@@H](C(=O)O)NC(=O)[C@H](Cc2ccccc2)NC(=O)[C@H](CCC(N)=O)NC(=O)[C@H]([C@@H](C)O)NC(=O)[C@@H]2CCCN2C(=O)[C@@H]2CCCN2C1=O [3BP-4168, Hex-[Cys-(tMeBn(N4Ac-PP))-Pro-Pro-Thr-Gln-Phe-Cys]-OH] | > 8.00 | > 8.00 | > 8.00 | – | –
CCCCCS(=O)(=O)N[C@H]1CSCc2cc(cc(CN3CCN(C(=O)CN4CCN(CC(=O)O)CCN(CC(=O)O)CCN(CC(=O)O)CC4)CC3)c2)CSC[C@@H](C(=O)N[C@@H](CC(=O)O)C(=O)O)NC(=O)[C@H](Cc2ccccc2)NC(=O)[C@H](CCC(N)=O)NC(=O)[C@H]([C@@H](C)O)NC(=O)[C@@H]2CCCN2C(=O)[C@@H]2CCCN2C1=O [3BP-3692, Pentyl-SO2-[Cys(tMeBn(DOTA-PP))-Pro-Pro-Thr-Gln-Phe-Cys]-Asp-NH2] (Pentanesulfonyl-CPPTQFCD-OH; linker 1-7 via X1) | > 8.00 | > 8.00 | > 8.00 | – | –
CCCCCC(=O)N[C@H]1CSCc2cc(CSCCNC(=O)CN3CCN(CC(=O)O)CCN(CC(=O)O)CCN(CC(=O)O)CC3)cc(c2)CSC[C@@H](C(=O)NCCC(=O)O)NC(=O)[C@H](Cc2ccccc2)NC(=O)[C@H](CCC(N)=O)NC(=O)[C@H]([C@@H](C)O)NC(=O)[C@@H]2CCCN2C(=O)[C@@H]2CCCN2C1=O [3BP-3651, Hex-[Cys(tMeBn(DOTA-AET))-Pro-Pro-Thr-Gln-Phe-Cys]-Bal-OH] | – | > 8.00 | – | > 8.00 | > 8.00

— patent US20220315554A1, “COMPOUNDS COMPRISING A […] LIGAND AND USE THEREOF” (priority 2019, published 2022)
